Measured values from patent US12433908B2, “Use of nicotinamide riboside, nicotinic acid riboside, and nicotinamide mononucleotide, reduced nicotinyl compounds, and nicotinoyl compound derivatives in infant formula for healthy development” (ChromaDex, Inc., priority 2016, dated 2025).

Test: Blood chemistry analysis of piglets given NR solution
Assay type: in vivo, piglets (Yorkshire/Hampshire crossbred)
Description: Sixteen (n=16) Yorkshire/Hampshire crossbred piglets were obtained from the University of California, Davis Swine Teaching and Research Center and received on lactation day (“LD”) 14. Prior to arrive, the piglets were processed by the suppler between 1-3 days of age by administration of iron and an antibiotic ([…] for swine) as is common practice at the University of California, Davis Swine Facility. It is not common practice at the University of California, Davis Swine Facility to give a second dose of iron and antibiotics unless it becomes necessary. The piglets were from two litters (litters 15 and 17), weaned at 17 days of age, and randomly placed into one of two groups balanced for litter, sex, and weight. The animals were not acclimated to the facility at arrival and were subsequently acclimated to the test diet administration system. The piglets were weaned into a temperature-controlled room (approximately 27-29° C.) that contained 10 adjacent pens. The piglets were group-housed in the nursery room at the Swine Facility, which is an enclosed room with access restricted to trained personnel. The two groups were separated by one pen containing piglets of similar age. Each morning enough nicotinamide riboside (NR, I) in water solution was prepared for that day's dose administration according to the dose preparation protocol. At least 5 mL of prepared dose was reserved and immediately frozen after preparation each day for analysis of nicotinamide riboside (NR, I) for the purpose of confirming stability of the dose material. The doses were stored at refrigeration temperature while not in use. Nicotinamide riboside (NR, I) was dosed once per day in the morning and at the same time each day. Piglets in the control group received the same volume of plain water and were dosed on the same schedule. Starting on Day 1, animals in the nicotinamide riboside (NR, I) group were dosed once daily (in the morning) with 277 mg nicotinamide riboside (NR, I) per pig resuspended in water for seven days. After one week, animals were dosed once daily with 342 mg nicotinamide riboside (NR, I) per pig delivered in 2.5 mL for seven days. For Days 1 and 2, the nicotinamide riboside (NR, I) solution was prepared by resuspending 2770 mg nicotinamide riboside (NR, I) in 50 mL water, and 5 mL of this solution was delivered to each pig by squirting it into the back of the mouth using a 10 mL syringe with a piece of tubing attached to the end. To reduce the volume to more efficiently deliver the nicotinamide riboside (NR, I) solution, the 2770 mg was resuspended in 25 mL water and 2.5 mL of the solution was squirted into the back of the mouth of each pig using a 3 mL syringe for Days 3-7. For Days 8-14, 3420 mg nicotinamide riboside (NR, I) was resuspended in 25 mL water and 2.5 mL of this solution was delivered to each pig. Each day prior to dosing, 2.5 mL of the nicotinamide riboside (NR, I) (5 mL on Days 1 and 2) were placed into a separate tube and frozen. Blood was collected from each pig via jugular venipuncture on Days 1, 8, and 14. In each instance, blood was collected prior to dosing with nicotinamide riboside (NR, I). On Day 1, the sow was removed from the piglets for approximately three hours prior to sample collection. On Days 8 and 14, feed was removed from the animals' pens 12 hours prior to sample collection. Blood was collected into purple-top vacutainers for CBC analysis and into red-top vacutainers for blood chemistry analysis. CBC analysis was performed at IDEXX Laboratories in West Sacramento, California using the Sysmex XT-iV Vet Hematology Autoanalyzer (Sysmex America Inc., Lincolnshire, Illinois). Red-top tubes were spun to collect serum and the serum frozen. Frozen aliquots (500 μL) were submitted to the University of California, Davis Veterinary medicine Teaching Hospital Clinical Diagnostic Laboratory for Blood Chemistry Analysis using the Cobas 6000 C501 Clinical Chemistry Analyzer (Roche Diagnostics, Indianapolis, IN). […]

[1] = Wk 1, 277 mg/pig once daily oral
[2] = Wk 2, 342 mg/pig once daily oral Days 8-14

Structure (SMILES): NC(=O)c1ccc[n+]([C@@H]2O[C@H](CO)[C@@H](O)[C@H]2O)c1 [NR, Nicotinamide riboside]
- AST (Baseline, before dosing): 45.5 U/L
- Albumin (Baseline, before dosing): 3.74 g/dL
- Alkaline Phosphatase (Baseline, before dosing): 720 U/L
- Anion Gap (Baseline, before dosing): 26.7 mmol/L
- BUN (Baseline, before dosing): 5.8 mg/dL
- Bicarbonate (Baseline, before dosing): 19.4 mmol/L
- Bilirubin Total (Baseline, before dosing): 0.40 mg/dL
- Calcium (Baseline, before dosing): 10.6 mg/dL
- Chloride (Baseline, before dosing): 100.3 mmol/L
- Creatine Kinase (Baseline, before dosing): 1.30 ×10^3 U/L
- Creatinine (Baseline, before dosing): 0.94 mg/dL
- GGT (Baseline, before dosing): 43.8 U/L
- Globulin (Baseline, before dosing): 0.86 g/dL
- Glucose (Baseline, before dosing): 117.8 mg/dL
- Phosphorus (Baseline, before dosing): 9.9 mg/dL
- Potassium (Baseline, before dosing): 4.50 mmol/L
- Sodium (Baseline, before dosing): 141.9 mmol/L
- Total Protein (Baseline, before dosing): 4.59 g/dL
- AST [1]: 50.6 U/L
- Albumin [1]: 3.43 g/dL
- Alkaline Phosphatase [1]: 326 U/L
- Anion Gap [1]: 21.1 mmol/L
- BUN [1]: 10.9 mg/dL
- Bicarbonate [1]: 20.1 mmol/L
- Bilirubin Total [1]: 0.40 mg/dL
- Calcium [1]: 9.0 mg/dL
- Chloride [1]: 96.1 mmol/L
- Creatine Kinase [1]: 0.88 ×10^3 U/L
- Creatinine [1]: 1.07 mg/dL
- GGT [1]: 41.4 U/L
- Globulin [1]: 0.97 g/dL
- Glucose [1]: 99.7 mg/dL
- Phosphorus [1]: 6.5 mg/dL
- Potassium [1]: 4.27 mmol/L
- Sodium [1]: 133.1 mmol/L
- Total Protein [1]: 4.40 g/dL
- AST [2]: 36.7 U/L
- Albumin [2]: 3.29 g/dL
- Alkaline Phosphatase [2]: 285 U/L
- Anion Gap [2]: 20.4 mmol/L
- BUN [2]: 8.6 mg/dL
- Bicarbonate [2]: 23.7 mmol/L
- Bilirubin Total [2]: 0.27 mg/dL
- Calcium [2]: 9.8 mg/dL
- Chloride [2]: 97.1 mmol/L
- Creatine Kinase [2]: 0.55 ×10^3 U/L
- Creatinine [2]: 0.80 mg/dL
- GGT [2]: 42.6 U/L
- Globulin [2]: 1.20 g/dL
- Glucose [2]: 77.1 mg/dL
- Phosphorus [2]: 7.5 mg/dL
- Potassium [2]: 4.10 mmol/L
- Sodium [2]: 137.3 mmol/L
- Total Protein [2]: 4.49 g/dL
